The values below come from patent US6214537A, “Synthetic peptides and mixtures thereof for detecting HIV antibodies” (Biochem Immunosystems, Inc., priority 1988, dated 2001).

Positions of bridges follow the written chain, without caps; N, C: chain ends. Residues, ends and D or L forms follow the SMILES beside them. No end group written: not given here.

For assay [1], the system named is HIV-1 antibodies. Put plainly: ELISA, single peptides identifying HIV-1 positive sera. The assay is classed as binding, human. The protocol: According to this test a peptide or a peptide mixture of the present invention is adsorbed onto the wells of a microtiter plate. The wells are then treated with sera to be tested. After washing, anti-human IgG labeled with peroxidase is added to the wells. The determination of the peroxidase is performed with a corresponding substrate, e.g. with o-phenylene diamine. Also in this procedure the peroxidase can be exchanged by another label, e.g. by a radioactive or fluorescence label.
(§1) Each well of the microtiter plate is saturated with 100 μl of a solution containing a peptide or mixture of peptides (5 μg/ml) and left overnight. The wells are emptied and washed twice with a washing buffer (Tris, 0.043M; NaCl, 0.5M;thimerosal, 0.01% w/v; Tween 20, 0.05% v/v; pH 7.4). The wells are then saturated with 0.35 ml of washing buffer for 1 hr. at 37° C. and washed once with the same buffer. Serum samples to be analyzed are diluted with specimen buffer (washing buffer plus casein, 0.05% w/v). The wells are rinsed with washing buffer prior to the addition of the diluted serum sample (0.1 ml). These are left to incubate for 1 hr. at room temperature. The wells are then emptied, washed twice rapidly and then once for two minutes with washing buffer. […] The wells are then emptied and washed twice rapidly with washing buffer and then five times in which the buffer was in contact with the well 2 minutes per washing.
(§2) The substrate solution (3,3', 5,5'-tetramethylbenzidine, 8 mg per ml of DMSO) is diluted with 100 volumes 0.1M citrate-acetate buffer, pH 5.6 containing 0.1% v/v of 30% H2 O2 and added to each well (0.1 ml per well). After 10 minutes the contents of each well is treated with 0.1 ml 2N H2 SO4 and the optical density read at 450 nm. All determinations are done in duplicate.

In assay [2] the test system is HIV-1-antibodies. As to the kind of experiment: ELISA, cyclic versus non-cyclic peptides, sera at various dilutions. Format: binding, human. As for the experimental part:
TABLE 5 is provided to illustrate the sensitivity of cyclic versus noncyclic peptides in the ELISA test by comparing the results of some sera at various dilutions.
Plates used in this experiment were coated with solutions of peptides at 10 μg/ml. (Experimental results of TABLE 5 were obtained with plates coated with peptides at 0,5 μg/ml). Four different HIV-1 positive serum samples were serially diluted and their titers determined. The titer was defined as the serum dilution giving an absorbancy reading of 1:0 in the conditions of the ELISA procedure already described.
as §1, §2

For the compound `CC[C@H](C)[C@@H]1NC(=O)[C@H](CC(C)C)NC(=O)[C@H](CCCCN)NC(=O)CNC(=O)[C@H](CO)NC(=O)[C@@H](NC(=O)CN)CSSC[C@@H](C(=O)N[C@H](C(=O)N[C@H](C(=O)N[C@@H](C)C(=O)N[C@H](C(=O)N2CCC[C@H]2C(=O)N[C@@H](Cc2c[nH]c3ccccc23)C(=O)N[C@@H](CC(N)=O)C(=O)N[C@@H](C)C(=O)N[C@@H](CO)C(=O)O)C(C)C)[C@@H](C)O)[C@@H](C)O)NC1=O` [Peptide 80] (H-GCSGKLICTTAVPWNAS-OH; disulfide 2-8), in assay [1] (ELISA, single peptide), the “% Positive Sera correctly Identified” value amounted to 100%. The ELISA optical density in assay [2] (serum 87V103, dilution 1/50) stood at 0.003 optical density units; in assay [2] (serum 1428, dilution 1/50), 1.047 optical density units; in assay [2] (serum M-5, dilution 1/50), 2.104 optical density units; in assay [2] (serum M-5, dilution 1/100) it was 1.881 optical density units; in assay [2] (serum M-5, dilution 1/200) it was 1.599 optical density units; in assay [2] (serum M-5, dilution 1/800) it was 0.767 optical density units. Besides, the ELISA optical density came to 0.191 optical density units in assay [2] (serum M-7, dilution 1/50); 0.067 optical density units in assay [2] (serum M-7, dilution 1/100); 0.019 optical density units in assay [2] (serum M-7, dilution 1/200); 0.010 optical density units in assay [2] (serum M-7, dilution 1/400); 0.005 optical density units in assay [2] (serum M-7, dilution 1/800); 1.026 optical density units in assay [2] (serum M-8, dilution 1/50). Besides, the ELISA optical density in assay [2] (serum M-8, dilution 1/100) is given as 0.737 optical density units; in assay [2] (serum M-8, dilution 1/200), 0.520 optical density units; in assay [2] (serum M-8, dilution 1/400), 0.340 optical density units; in assay [2] (serum M-8, dilution 1/800), 0.159 optical density units; in assay [2] (serum M-16, dilution 1/50), 1.601 optical density units; in assay [2] (serum M-16, dilution 1/100), 1.300 optical density units. Moreover, the ELISA optical density in assay [2] (serum M-16, dilution 1/200) is 0.903 optical density units; in assay [2] (serum M-16, dilution 1/400) it was 0.583 optical density units; in assay [2] (serum M-16, dilution 1/800) it was 0.329 optical density units.
For “CGRAEQASQEVKN [Peptide 46, NH2 -CGRAEQASQEVKN-COOH]”, the “% Positive Sera correctly Identified” value in assay [1] (peptide Free) amounted to 0%; in assay [1] (peptide coupled), 93%.
“NH2 -CGYLKDQQLLGIWGCSGKLICTTAVPWNASWSNKSLEQI-COOH [Peptide 97]”: the “% Positive Sera correctly Identified” value in assay [1] (ELISA, single peptide) amounted to 100%.
On the same count and under the same terms, with “NH2 -CGVERYLKQQLLGIWGCSGKLICTTAVPWNASWSNKSLEQI-COOH [Peptide 99]” the figure was 100%; with “NH2 -GCSGKLICTTAVPWNASWSWSNKSLEQI-COOH [Peptide 95]”, 100%.
Still for that read-out and setting: under “NH2 -FAFAFGCSGKLICTTAVPWNASWSNKSLEQI-COOH [Peptide 91]” stands 94%; under CGKIEPLGVAPTKAKRRVVQREKR [Peptide 71], 83%.
Still for that read-out and setting: under “NH2 -CGLGIWGCSGKLICTTAVPWNASWSNKSLEQI-COOH [Peptide 98]” stands 100%.
For the compound TTAVPWNASWSNKSLEQGC [Peptide 42], the “% Positive Sera correctly Identified” value in assay [1] (ELISA, single peptide) is 5%.
Take `CC[C@H](C)[C@H](NC(=O)[C@H](CCC(N)=O)NC(=O)[C@H](CCC(=O)O)NC(=O)[C@H](CC(C)C)NC(=O)[C@H](CO)NC(=O)[C@H](CCCCN)NC(=O)[C@H](CC(N)=O)NC(=O)[C@H](CO)NC(=O)[C@H](Cc1c[nH]c2ccccc12)NC(=O)[C@H](CO)NC(=O)[C@H](C)NC(=O)[C@H](CC(N)=O)NC(=O)[C@H](Cc1c[nH]c2ccccc12)NC(=O)[C@@H]1CCCN1C(=O)[C@@H](NC(=O)[C@H](C)NC(=O)[C@@H](NC(=O)[C@@H](NC(=O)[C@@H]1CSSC[C@H](NC(=O)CN)C(=O)N[C@@H](CO)C(=O)NCC(=O)N[C@@H](CCCCN)C(=O)N[C@@H](CC(C)C)C(=O)N[C@@H]([C@@H](C)CC)C(=O)N1)[C@@H](C)O)[C@@H](C)O)C(C)C)C(=O)O` [Peptide 96] (H-GCSGKLICTTAVPWNASWSNKSLEQI-OH; disulfide 2-8): in assay [1] (ELISA, single peptide), the “% Positive Sera correctly Identified” value is recorded as 100%.
Turning to “CGNNPPIPVGE [Peptide 41, NH2 -CGNNPPIPVGE-COOH]”, the “% Positive Sera correctly Identified” value was 63% in assay [1] (peptide Free) and 73% in assay [1] (peptide coupled).
Regarding GHACVPTDPNPQEVVL [Peptide 14], the “% Positive Sera correctly Identified” value in assay [1] (ELISA, single peptide) is recorded as 50%.
As for “NH2 -IWGCSGKLICTTAVPWNAS-COOH (H-IWGCSGKLICTTAVPWNAS-OH; cysteine pairing not given here) [Peptide 78, linear peptide, gp41 602-620]”, the “% Positive Sera correctly Identified” value in assay [1] (ELISA, single peptide) was determined as 100%.
Turning to “NH2 -VERYLKDQQLLGIWGCSGKLICTTAVPWNAS-COOH (H-VERYLKDQQLLGIWGCSGKLICTTAVPWNAS-OH; cysteine pairing not given here) [Peptide 81, linear peptide, gp41 590-620]”, in assay [1] (ELISA, single peptide), the “% Positive Sera correctly Identified” value is 100%.
For `CC[C@H](C)[C@H](NC(=O)CNC(=O)[C@H](CC(C)C)NC(=O)[C@H](CC(C)C)NC(=O)[C@H](CCC(N)=O)NC(=O)[C@H](CCC(N)=O)NC(=O)[C@H](CC(=O)O)NC(=O)[C@H](CCCCN)NC(=O)[C@H](CC(C)C)NC(=O)[C@H](Cc1ccc(O)cc1)NC(=O)[C@H](CCCNC(=N)N)NC(=O)[C@H](CCC(=O)O)NC(=O)[C@@H](N)C(C)C)C(=O)N[C@@H](Cc1c[nH]c2ccccc12)C(=O)NCC(=O)N[C@H]1CSSC[C@@H](C(=O)N[C@H](C(=O)N[C@H](C(=O)N[C@@H](C)C(=O)N[C@H](C(=O)N2CCC[C@H]2C(=O)N[C@@H](Cc2c[nH]c3ccccc23)C(=O)N[C@@H](CC(N)=O)C(=O)N[C@@H](C)C(=O)N[C@@H](CO)C(=O)O)C(C)C)[C@@H](C)O)[C@@H](C)O)NC(=O)[C@H]([C@@H](C)CC)NC(=O)[C@H](CC(C)C)NC(=O)[C@H](CCCCN)NC(=O)CNC(=O)[C@H](CO)NC1=O` [Peptide 88] (H-VERYLKDQQLLGIWGCSGKLICTTAVPWNAS-OH; disulfide 16-22), the “% Positive Sera correctly Identified” value in assay [1] (ELISA, single peptide) was determined as 100%.
Same read-out and setting: with “NH2 -SGKLICTTAVPWNASWSNKSLEQGC-COOH [Peptide 56]” the figure was 100%.
